Results from patent publication US20240083857A1, “2-Methyl-Quinazolines” (Bayer Pharma Aktiengesellschaft, priority 2017, published 2024).

Assays:
[1] = target: K-Ras^G12C : hSOS1 interaction (Homo sapiens, UniProt Q07889); assay: Biochemical assay 1: K-Ras^G12C interaction assay with hSOS1 (HTRF); assay type: binding; settings: E-notation values; unit inferred; read-out: Assay 1 (KRAS-SOS interaction) IC50
[2] = target: human SOS1 (nucleotide exchange of K-Ras^G12C) (Homo sapiens, UniProt Q07889); assay: Biochemical assay 2: K-Ras^G12C activation assay by hSOS1 at high GTP concentration (HTRF); settings: E-notation values; unit inferred; 50 μM GTP; read-out: Assay 2 (KRAS-Activation, high GTP) IC50

SMILES	IC50 [1] [nM]	IC50 [2] [nM]
COc1cc2nc(C)nc(NC(C)c3cc(Cl)c(Br)s3)c2cc1OC (centres unmarked) [Example 432, N-[1-(5-bromo-4-chlorothiophen-2-yl)ethyl]-6,7-dimethoxy-2-methylquinazolin-4-amine]	16700	15700
Cc1nc(NC(C)c2ccc(-c3ccccc3CN(C)C)s2)c2cc(NCCN3CCOCC3)ccc2n1 (centres unmarked) [Example 433, N4-[1-(5-{2-[(dimethylamino)methyl]phenyl}-2-thienyl)ethyl]-2-methyl-N6-[2-(morpholin-4-yl)ethyl]quinazoline-4,6-diamine]	77.1	70.1
Cc1nc(NC(C)c2ccc(Br)s2)c2cc(N3CCN(C)C(=O)C3)ccc2n1 (centres unmarked) [Example 434, 4-(4-{[1-(5-bromothiophen-2-yl)ethyl]amino}-2-methylquinazolin-6-yl)-1-methylpiperazin-2-one]	2840	2390
Cc1nc(NC(C)c2ccc(-c3ccccc3CN(C)C)s2)c2cc(N3CCN(C)C(=O)C3)ccc2n1 (centres unmarked) [Example 435, 4-(4-{[1-(5-{2-[(dimethylamino)methyl]phenyl}thiophen-2-yl)ethyl]amino}-2-methylquinazolin-6-yl)-1-methylpiperazin-2-one]	84.4	51.9
COC(=O)C(C)(C)c1ccccc1-c1ccc(C(C)Nc2nc(C)nc3cc(OC)c(OC)cc23)s1 (centres unmarked) [Example 436, methyl 2-[2-(5-{1-[(6,7-dimethoxy-2-methylquinazolin-4-yl)amino]ethyl}thiophen-2-yl)phenyl]-2-methylpropanoate]	2390	1470
COc1cc2nc(C)nc(NC(C)c3sc(-c4ccccc4CN)cc3Cl)c2cc1OC (centres unmarked) [Example 437, N-[1-{5-[2-(aminomethyl)phenyl]-3-chlorothiophen-2-yl}ethyl]-6,7-dimethoxy-2-methylquinazolin-4-amine]	145	95.3
Cc1nc(NC(C)c2ccc(-c3ccccc3CN(C)C)s2)c2cc(NS(C)(=O)=O)ccc2n1 (centres unmarked) [Example 438, N-(4-{[1-(5-{2-[(dimethylamino)methyl]phenyl}thiophen-2-yl)ethyl]amino}-2-methylquinazolin-6-yl)methanesulfonamide]	90.2	65.5
COc1ccc(-c2ccc(C(C)Nc3nc(C)nc4cc(OC)c(OC)cc34)s2)c(CN(C)C)c1 (centres unmarked) [Example 439, N-[1-(5-{2-[(dimethylamino)methyl]-4-methoxyphenyl}thiophen-2-yl)ethyl]-6,7-dimethoxy-2-methylquinazolin-4-amine]	277	145
Cc1nc(NC(C)c2ccc(-c3ccccc3CN(C)C)s2)c2cc(NC(=O)N(C)C)ccc2n1 (centres unmarked) [Example 440, 3-(4-{[1-(5-{2-[(dimethylamino)methyl]phenyl}thiophen-2-yl)ethyl]amino}-2-methylquinazolin-6-yl)-1,1-dimethylurea]	706	576
Cc1nc(NC(C)c2ccc(Br)s2)c2cc(N3CCN(Cc4ccccc4)C(=O)C3)ccc2n1 (centres unmarked) [Example 441, 1-benzyl-4-(4-{[1-(5-bromothiophen-2-yl)ethyl]amino}-2-methylquinazolin-6-yl)piperazin-2-one]	16100	3950
COc1cc2nc(C)nc(NC(C)c3ccc(-c4ccc(C)cc4CN(C)C)s3)c2cc1OC (centres unmarked) [Example 442, N-[1-(5-{2-[(dimethylamino)methyl]-4-methylphenyl}thiophen-2-yl)ethyl]-6,7-dimethoxy-2-methylquinazolin-4-amine]	45.3	39.4
COc1cc2nc(C)nc(NC(C)c3ccc(-c4ccc(C5CC5)cc4CN(C)C)s3)c2cc1OC (centres unmarked) [Example 443, N-[1-(5-{4-cyclopropyl-2-[(dimethylamino)methyl]phenyl}thiophen-2-yl)ethyl]-6,7-dimethoxy-2-methylquinazolin-4-amine]	112	60.5
COc1cc2nc(C)nc(NC(C)c3ccc(-c4ccccc4C(C)(C)N)s3)c2cc1OC (centres unmarked) [Example 455, N-[1-{5-[2-(2-aminopropan-2-yl)phenyl]thiophen-2-yl}ethyl]-6,7-dimethoxy-2-methylquinazolin-4-amine]	397	1040
COc1cc2nc(C)nc(NC(C)c3ccc(-c4ccccc4CN(C)CC#N)s3)c2cc1OC (centres unmarked) [Example 456, {[2-(5-{1-[(6,7-dimethoxy-2-methylquinazolin-4-yl)amino]ethyl}thiophen-2-yl)benzyl](methyl)amino}acetonitrile]	162	292
CNC(=O)Nc1ccc2nc(C)nc(NC(C)c3ccc(-c4ccccc4CN(C)C)s3)c2c1 (centres unmarked) [Example 457, 1-(4-{[1-(5-{2-[(dimethylamino)methyl]phenyl}thiophen-2-yl)ethyl]amino}-2-methylquinazolin-6-yl)-3-methylurea]	295	682
Cc1nc(NC(C)c2ccc(-c3ccccc3CN(C)C)s2)c2cc(N3CCN(Cc4ccccc4)C(=O)C3)ccc2n1 (centres unmarked) [Example 458, 1-benzyl-4-(4-{[1-(5-{2-[(dimethylamino)methyl]phenyl}thiophen-2-yl)ethyl]amino}-2-methylquinazolin-6-yl)piperazin-2-one]	48	40
